The record followed here is ChEMBL document CHEMBL4837239, “Identification of Thieno[3,2-d]pyrimidine Derivatives as Dual Inhibitors of Focal Adhesion Kinase and FMS-like Tyrosine Kinase 3” (J Med Chem, 2021).

In general, IC50 refers to the midpoint of a concentration-inhibition curve. As a reminder, the GI50 is the concentration giving 50% growth inhibition.

One data set deals with Focal adhesion kinase 1 (Homo sapiens, UniProt Q05397). The data set can be described thus: Inhibition of recombinant FAK (unknown origin) by radiometric kinase assay.
The next data set concerns HCT-116. Kind of data set: Antiproliferative activity against human HCT-116 cells assessed as growth inhibition measured after 72 hrs by CellTiter-Glo assay. Type of data set: functional. On the technique in general: In ATP-based viability assays light output follows the ATP content of the culture.
The subject of another data set is MDA-MB-231. The data set can be described thus: Antiproliferative activity against human MDA-MB-231 cells assessed as growth inhibition measured after 72 hrs by CellTiter-Glo assay. Type of data set: functional.
Data set [1] in a line: Antiproliferative activity against human A375P cells assessed as growth inhibition measured after 72 hrs by CellTiter-Glo assay. Type of data set: functional.
Data set [2] can be described thus: Metabolic stability in human liver microsomes assessed as compound remaining at 1 uM measured after 1 hr. Type of data set: ADME, Microsome. Conditions: read-out: Stabilty. Background: Liver microsomes are a subcellular fraction often used to study metabolism.

Sequence of Focal adhesion kinase 1 (Q05397 whole entry): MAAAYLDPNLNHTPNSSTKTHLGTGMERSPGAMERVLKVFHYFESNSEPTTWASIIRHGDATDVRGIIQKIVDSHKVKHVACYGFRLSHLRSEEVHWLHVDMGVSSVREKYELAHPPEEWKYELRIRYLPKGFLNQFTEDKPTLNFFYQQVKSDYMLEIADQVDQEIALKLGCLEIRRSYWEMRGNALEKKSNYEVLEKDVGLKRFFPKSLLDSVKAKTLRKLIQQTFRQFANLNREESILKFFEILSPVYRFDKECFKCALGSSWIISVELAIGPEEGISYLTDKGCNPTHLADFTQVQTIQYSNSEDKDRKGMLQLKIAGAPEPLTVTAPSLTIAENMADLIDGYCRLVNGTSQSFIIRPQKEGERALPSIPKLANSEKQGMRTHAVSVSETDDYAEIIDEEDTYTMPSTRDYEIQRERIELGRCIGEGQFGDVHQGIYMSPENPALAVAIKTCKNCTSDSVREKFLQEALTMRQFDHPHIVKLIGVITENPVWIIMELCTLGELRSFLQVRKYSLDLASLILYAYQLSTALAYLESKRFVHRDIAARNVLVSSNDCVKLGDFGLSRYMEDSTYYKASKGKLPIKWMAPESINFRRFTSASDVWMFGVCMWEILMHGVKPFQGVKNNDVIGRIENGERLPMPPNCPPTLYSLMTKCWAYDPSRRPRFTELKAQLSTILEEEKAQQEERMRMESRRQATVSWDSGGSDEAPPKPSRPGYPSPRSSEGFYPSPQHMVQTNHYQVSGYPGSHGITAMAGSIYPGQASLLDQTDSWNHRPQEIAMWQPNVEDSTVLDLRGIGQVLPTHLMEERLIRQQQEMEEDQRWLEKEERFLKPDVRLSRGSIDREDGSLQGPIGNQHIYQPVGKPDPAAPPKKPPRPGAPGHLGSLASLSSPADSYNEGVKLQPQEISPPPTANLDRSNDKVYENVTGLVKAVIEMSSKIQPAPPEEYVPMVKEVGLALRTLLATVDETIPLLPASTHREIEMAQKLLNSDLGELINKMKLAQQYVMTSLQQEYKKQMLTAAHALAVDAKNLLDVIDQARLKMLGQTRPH

Regarding `COc1cc(Nc2ncc3scc(-c4ccccc4NS(C)(=O)=O)c3n2)cc(OC)c1OC`, the IC50 at Focal adhesion kinase 1 was 78 nM.
Same read-out and setting: in the case of `COc1cc(Nc2ncc3scc(-c4cccnc4)c3n2)cc(OC)c1OC` it was 26 nM.
Regarding `CS(=O)(=O)Nc1cccc(-c2csc3cnc(Nc4ccccc4)nc23)c1`, the IC50 at Focal adhesion kinase 1 came to 30 nM. For the same compound, the figures for the GI50 (in the data set with HCT-116; in the data set with MDA-MB-231; in data set [1]) were 2570 nM, 26900 nM and 7520 nM, respectively. Moreover, the remaining at 1 h, 1 µM in data set [2] worked out at 49.6%.
In the same order, the values of `CS(=O)(=O)Nc1cccc(-c2csc3cnc(Nc4ccc(N5CCCCC5)cc4)nc23)c1` are 68 nM, 1490 nM, 3380 nM, 2780 nM and 58%.
As to `COc1cc(Nc2ncc3scc(-c4cccc(C(=O)O)c4)c3n2)cc(OC)c1OC`, on Focal adhesion kinase 1, the IC50 turned out to be 49 nM.
Still for that read-out and setting: in the case of `COc1cc(Nc2ncc3scc(-c4ccccc4N(C)S(C)(=O)=O)c3n2)cc(OC)c1OC` it was 15 nM.
Regarding `CCN1CCN(c2ccc(Nc3ncc4scc(-c5ccccc5[N+](=O)[O-])c4n3)cc2)CC1`, on Focal adhesion kinase 1, the IC50 is 361 nM. Further, the GI50 came to 990 nM in the data set with HCT-116 (Homo sapiens, HCT-116); 1010 nM with MDA-MB-231 (Homo sapiens, MDA-MB-231); 1500 nM in data set [1] (Homo sapiens, A375P).
Regarding `COc1cc(Nc2ncc3scc(-c4cccc(S(C)(=O)=O)c4)c3n2)cc(OC)c1OC`, the IC50 at Focal adhesion kinase 1 was determined as 91 nM.
For `CCOC(=O)c1cccc(-c2csc3cnc(Nc4ccc(N5CCN(CC)CC5)cc4)nc23)c1`, the IC50 on Focal adhesion kinase 1 was found to be 321 nM. Also, the GI50 with HCT-116 (Homo sapiens, HCT-116) is 1100 nM; in the data set with MDA-MB-231 (Homo sapiens, MDA-MB-231), 950 nM; in data set [1] (Homo sapiens, A375P), 1650 nM.
In the case of `COc1cc(Nc2ncc3scc(-c4cccc(N(C)S(C)(=O)=O)c4)c3n2)cc(OC)c1OC`, on Focal adhesion kinase 1, the IC50 was 35 nM.
On to `CCN1CCN(c2ccc(Nc3ncc4scc(-c5cccc(C(=O)O)c5)c4n3)cc2)CC1`, for which the IC50 on Focal adhesion kinase 1 is 59 nM. Further, the GI50 came out at 4350 nM in the data set with HCT-116 (Homo sapiens, HCT-116); 4640 nM with MDA-MB-231 (Homo sapiens, MDA-MB-231); 12300 nM in data set [1] (Homo sapiens, A375P).
Consider `CCN1CCN(c2ccc(Nc3ncc4scc(-c5ccccc5S(C)(=O)=O)c4n3)cc2)CC1`, for which, at Focal adhesion kinase 1, the IC50 came to 194 nM. Further, the GI50 in the data set with HCT-116 (Homo sapiens, HCT-116) is 1880 nM; in the data set with MDA-MB-231 (Homo sapiens, MDA-MB-231), 8820 nM; in data set [1] (Homo sapiens, A375P), 4270 nM.
Turning to `CS(=O)(=O)Nc1cccc(-c2csc3cnc(NC4CCCCC4)nc23)c1`, the IC50 at Focal adhesion kinase 1 came to 717 nM. The GI50 stood at 11300 nM in the data set with HCT-116, 7730 nM with MDA-MB-231 and 17800 nM in data set [1].
For `CN(C)c1ccc(Nc2ncc3scc(-c4cccc(NS(C)(=O)=O)c4)c3n2)cc1`, the 50% inhibitory concentration (IC50) at Focal adhesion kinase 1 is 18 nM. Besides, the GI50 in the data set on HCT-116 came to 2270 nM; in the data set on MDA-MB-231 it was 3320 nM; in data set [1] it was 3480 nM. Besides, the remaining at 1 h, 1 µM in data set [2] worked out at 63.8%.
`CCN1CCN(c2ccc(Nc3ncc4scc(-c5cccc(C(=O)NC)c5)c4n3)cc2)CC1`: the IC50 on Focal adhesion kinase 1 was found to be 36 nM. For the same compound, the GI50 turned out to be 300 nM in the data set on HCT-116 (Homo sapiens, HCT-116); 1260 nM with MDA-MB-231 (Homo sapiens, MDA-MB-231); 1360 nM in data set [1] (Homo sapiens, A375P). Besides, the remaining at 1 h, 1 µM in data set [2] is 71.1%.
For the compound `CS(=O)(=O)Nc1cccc(-c2csc3cnc(NC4CC4)nc23)c1`, the IC50 on Focal adhesion kinase 1 was found to be 2350 nM. The results for the GI50 (in the data set on HCT-116; in the data set on MDA-MB-231; in data set [1]) were 43200 nM, 43500 nM and 36600 nM, respectively.
As for `COc1cc(Nc2ncc3scc(-c4ccccn4)c3n2)cc(OC)c1OC`, the IC50 on Focal adhesion kinase 1 stood at 18 nM.
Same read-out and setting: in the case of `CNC(=O)c1ccccc1-c1csc2cnc(Nc3cc(OC)c(OC)c(OC)c3)nc12` it was 55 nM.
Take `CS(=O)(=O)Nc1cccc(-c2csc3cnc(N)nc23)c1`: the IC50 on Focal adhesion kinase 1 is 4030 nM. Also, the GI50 in the data set on HCT-116 was 33200 nM; in the data set with MDA-MB-231, 27800 nM; in data set [1] it was 43300 nM.
For `COc1cc(Nc2ncc3scc(-c4ccccc4S(C)(=O)=O)c3n2)cc(OC)c1OC`, the IC50 at Focal adhesion kinase 1 is 668 nM.
Turning to `CNC(=O)c1ccc(Nc2ncc(C(F)(F)F)c(NCc3nccnc3N(C)S(C)(=O)=O)n2)cc1` [DEFACTINIB], the GI50 with HCT-116 (Homo sapiens, HCT-116) was determined as 9130 nM; in the data set with MDA-MB-231 (Homo sapiens, MDA-MB-231), 11400 nM; in data set [1] (Homo sapiens, A375P), 5940 nM.
